Data on 38 molecules can be found in ChEMBL document CHEMBL4483862, “Open-source discovery of chemical leads for next-generation chemoprotective antimalarials” (2018).

Each structure is given as a SMILES string. Where only a bound is given, the exact number is not on record here.

For the experiment, the system named is Plasmodium berghei. Kind of experiment: Luciferase/luciferin-expressing antifolate-resistant parasites were used to infect a culture of HepG2 cells that were pre-incubated with compounds. Infected hepatocytes emit light due to the luciferase reaction. Assay results are presented as the percent inhibition of light emission compared to control. […]. The experiment is classed as functional. Particulars: sporozoite; for IC90: read-out: LUCIFERASE INFECTION ASSAY - IC90.

[1] abbreviates: read-out: LUCIFERASE INFECTION ASSAY - IC50.

In general, IC50 refers to the concentration that inhibits the measured activity by half. As usually defined, the IC90 is the point of the concentration-response curve where the effect stands at 90%. On to `C/C(=N\NC(N)=S)c1ccccn1`, for which the IC90 amounted to 2.4 µM. Besides, the IC50 (HEPG2TOX_HILL_SLOPE 1.14, HEPG2TOX_R_SQUARED 0.913, PBLUC_HILL_SLOPE 1.97, PBLUC_R_SQUARED 0.843, read-out: LUCIFERASE INFECTION ASSAY - IC50) worked out at 0.788 µM.

`Cc1csc2nc(CNC(c3ccc(C4CCCCC4)cc3)C(C)C)cc(=O)n12` (stereo unspecified): the IC90 was 4.73 µM. Where the note is “PBLUC_HILL_SLOPE 9.21, PBLUC_R_SQUARED 0.523, read-out: LUCIFERASE INFECTION ASSAY - IC50”, the IC50 stood at 3.73 µM.

Take `O=C(Nc1nonc1-c1cccs1)c1sc2cccc(Cl)c2c1Cl`: the IC90 was determined as 4.63 µM. In addition, the IC50 under setting [1] worked out at 3.26 µM.

As to `CC(C)(C)S(=O)(=O)/C(C#N)=C/Nc1ccc(OC(F)(F)F)cc1`, the IC90 is above 9.47 µM. Also, under setting [1], the IC50 was above 9.47 µM.

Consider `CC(C)(C)c1ccc(-c2nnc(SCc3ccc([N+](=O)[O-])cc3)n2-c2cccc(C(F)(F)F)c2)cc1`, for which the IC90 was above 6.44 µM. Further, where the note is “FFLUC_HILL_SLOPE 12, FFLUC_R_SQUARED 0.571, HEPG2TOX_HILL_SLOPE 0.228, HEPG2TOX_R_SQUARED 0.238, read-out: LUCIFERASE INFECTION ASSAY - IC50”, the IC50 is above 6.44 µM.

Consider `CC(=O)Nc1cccc(-c2ccc3ncc(-c4ccc5c(c4)OCO5)n3n2)c1`, for which the IC90 came to 3.94 µM. Besides, the IC50 (HEPG2TOX_HILL_SLOPE 2.37, HEPG2TOX_R_SQUARED 0.964, PBLUC_HILL_SLOPE 13.4, PBLUC_R_SQUARED 0.492, read-out: LUCIFERASE INFECTION ASSAY - IC50) came out at 3.34 µM.

With `O=[N+]([O-])c1ccc(N/N=C2\CCSc3ccc(Cl)cc32)cc1`, the concentration for an effect of 90% (IC90) amounted to 9.78 µM. Moreover, the IC50 (FFLUC_HILL_SLOPE 1.76, FFLUC_R_SQUARED 0.654, HEPG2TOX_HILL_SLOPE 8.57, HEPG2TOX_R_SQUARED 0.177, PBLUC_HILL_SLOPE 41.5, PBLUC_R_SQUARED 0.423, read-out: LUCIFERASE INFECTION ASSAY - IC50) is 9.27 µM.

Take `CCc1ccc(CN(C)C(C)C(=O)Nc2cc(S(=O)(=O)N(C)C)ccc2C)cc1` (stereo unspecified): the IC90 is above 10 µM. The IC50 under setting [1] is 8.31 µM.

As to `CC(C)Cc1ccc(C(C)NC(=O)c2ccc(CN3CCCC3)cc2)cc1` (stereo unspecified), the IC90 is above 10 µM. Moreover, the IC50 (PBLUC_HILL_SLOPE 0.907, PBLUC_R_SQUARED 0.512, read-out: LUCIFERASE INFECTION ASSAY - IC50) stood at 2.16 µM.

Turning to `CCc1noc(C)c1C(=O)OCc1csc(N(C(C)=O)c2ccccc2)n1`, the IC90 was above 10 µM. Besides, the IC50 under setting [1] was above 10 µM.

`O=C1/C(=C/c2ccccc2Cl)CCC/C1=C\c1ccccc1Cl`: the IC90 is above 9.61 µM. Under setting [1], the IC50 is above 9.61 µM.

On to `Cc1nc2ccccc2n1CCC(=O)Nc1cccc(C(F)(F)F)c1`, for which the IC90 was 8.78 µM. For the same molecule, the half-inhibitory concentration (IC50) (PBLUC_HILL_SLOPE 3.83, PBLUC_R_SQUARED 0.29, read-out: LUCIFERASE INFECTION ASSAY - IC50) turned out to be 4.95 µM.

In the case of `COc1cc2c(cc1OCC(=O)Nc1ccccc1Cl)C=CC(C)(C)O2`, the IC90 is above 8.83 µM. Moreover, the 50% inhibitory concentration (IC50) (PBLUC_HILL_SLOPE 1.25, PBLUC_R_SQUARED 0.511, read-out: LUCIFERASE INFECTION ASSAY - IC50) worked out at 4.17 µM.

Take `O=C(c1cnc2nc(N3CCCCC3)sc2c1)c1ccccc1O`: the IC90 was above 10 µM. Under setting [1], the IC50 stood at 6.09 µM.

On to `CCOc1ccccc1NC(=O)Cc1nc2nc(C)cc(C)n2n1`, for which the concentration for an effect of 90% (IC90) was above 10.1 µM. Moreover, under setting [1], the concentration for half-maximal inhibition (IC50) was above 10.1 µM.

As for `Cc1nc(Sc2nnc3ccccn23)c2c3c(sc2n1)CCCC3`, the IC90 amounted to 3.52 µM. Also, the IC50 under setting [1] was 2.94 µM.

With `COCCCn1c(Sc2ncc(Br)cc2[N+](=O)[O-])nnc1-c1ccc(C(C)(C)C)cc1`, the concentration for an effect of 90% (IC90) was above 6.52 µM. Also, the IC50 (PBLUC_HILL_SLOPE 13.2, PBLUC_R_SQUARED 0.0327, read-out: LUCIFERASE INFECTION ASSAY - IC50) is above 6.52 µM.

Take `OC1(c2ccc(F)cc2)CS/C(=N\c2cccnc2)N1Cc1ccco1` (stereo unspecified): the IC90 was above 10 µM. Moreover, the IC50 (PBLUC_HILL_SLOPE 6.5, PBLUC_R_SQUARED 0.331, read-out: LUCIFERASE INFECTION ASSAY - IC50) amounted to 8.78 µM.

For `CC(OC(=O)CCc1nc2cc(Cl)ccc2n(Cc2ccccc2)c1=O)C(=O)N1CCCC1` (stereo unspecified), the IC90 is 5 µM. Besides, the half-maximal inhibitory concentration (IC50) (PBLUC_HILL_SLOPE 7.3, PBLUC_R_SQUARED 0.693, read-out: LUCIFERASE INFECTION ASSAY - IC50) was 3.7 µM.

As to `O=C(COc1ccccc1C(=O)NCc1ccccc1)NC(c1ccc(F)cc1)c1cccs1` (stereo unspecified), the IC90 was above 10 µM. Further, the IC50 under setting [1] stood at 8.41 µM.

`Cc1ccc(-c2csc(NC(=O)/C=C/c3cnn(C)c3)n2)o1`: the IC90 turned out to be 4.35 µM. Besides, the IC50 (HEPG2TOX_HILL_SLOPE 1.69, HEPG2TOX_R_SQUARED 0.984, PBLUC_HILL_SLOPE 1.61, PBLUC_R_SQUARED 0.8, read-out: LUCIFERASE INFECTION ASSAY - IC50) was 1.11 µM.

With `CCOC(=O)C1=C(COC(=O)c2oc3ccc(OC)cc3c2C)NC(=O)NC1`, the IC90 was above 10 µM. Besides, the IC50 (HEPG2TOX_HILL_SLOPE 3.23, HEPG2TOX_R_SQUARED 0.736, PBLUC_HILL_SLOPE 1.66, PBLUC_R_SQUARED 0.334, read-out: LUCIFERASE INFECTION ASSAY - IC50) was above 10 µM.

On to `COc1ccc(Cn2c3c(c4ccccc4c2=O)C(=O)c2ccccc2-3)cc1`, for which the IC90 is above 8.98 µM. The IC50 (HEPG2TOX_HILL_SLOPE 4, HEPG2TOX_R_SQUARED 0.749, PBLUC_HILL_SLOPE 2.74, PBLUC_R_SQUARED 0.283, read-out: LUCIFERASE INFECTION ASSAY - IC50) was 7.93 µM.

Turning to `CCNC(=O)CNC(=O)c1ccc(C(C)(C)C)cc1`, the IC90 was above 10 µM. For the same molecule, the IC50 under setting [1] was above 10 µM.

Consider `Cc1cc(C)n2cc(CN(C)Cc3ccccc3)nc2n1`, for which the IC90 is above 10 µM. Moreover, the IC50 under setting [1] is above 10 µM.

Regarding `CCn1nc(C)cc1-c1nnc(Cc2ncc([N+](=O)[O-])s2)n1CCCOC`, the IC90 was 5.21 µM. For the setting “HEPG2TOX_HILL_SLOPE 9.43, HEPG2TOX_R_SQUARED 0.891, PBLUC_HILL_SLOPE 6.15, PBLUC_R_SQUARED 0.786, read-out: LUCIFERASE INFECTION ASSAY - IC50”, the IC50 was found to be 3.65 µM.

On to `O=C(NC1CC1)c1ccc(-c2cn3c(-c4ccc(CO)cc4)cnc3cn2)cc1`, for which the IC90 is above 8.58 µM. Moreover, the IC50 (FFLUC_HILL_SLOPE 0.381, FFLUC_R_SQUARED 0.0382, PBLUC_HILL_SLOPE 16.7, PBLUC_R_SQUARED 0.0287, read-out: LUCIFERASE INFECTION ASSAY - IC50) came to 8.32 µM.

On to `O=c1c2c(-c3ccccc3)csc2nc2c3ccccc3c(NCCO)nn12`, for which the IC90 was above 10 µM. Also, the IC50 under setting [1] was above 10 µM.

For `Cc1sc2ncnc(Oc3ccc4ccccc4c3)c2c1-c1ccccc1`, the concentration for an effect of 90% (IC90) was above 10 µM. Moreover, for the setting “HEPG2TOX_HILL_SLOPE 0.313, HEPG2TOX_R_SQUARED 0.61, PBLUC_HILL_SLOPE 2.74, PBLUC_R_SQUARED 0.421, read-out: LUCIFERASE INFECTION ASSAY - IC50”, the IC50 turned out to be 6.76 µM.

Take `COc1cc(OC)cc(-c2cnc3cnc(-c4ccc(Cl)cc4)cn23)c1`: the IC90 worked out at 8.07 µM. Where the note is “HEPG2TOX_HILL_SLOPE 2.36, HEPG2TOX_R_SQUARED 0.458, PBLUC_HILL_SLOPE 2.59, PBLUC_R_SQUARED 0.445, read-out: LUCIFERASE INFECTION ASSAY - IC50”, the IC50 turned out to be 3.46 µM.

`CC(C)Cn1c(N)c(C(=O)CSc2nnc(COc3ccccc3Cl)o2)c(=O)n(C)c1=O`: the IC90 is 3.85 µM. Also, under setting [1], the IC50 is 3.28 µM.

Take `CC1Cc2ccccc2N1C(=O)CSC1=NNC(=C2N=Nc3ccccc32)N1c1ccccc1` (stereo unspecified): the IC90 came to 8.33 µM. For the same molecule, the IC50 (FFLUC_HILL_SLOPE 19.6, FFLUC_R_SQUARED 0.491, PBLUC_HILL_SLOPE 5.23, PBLUC_R_SQUARED 0.568, read-out: LUCIFERASE INFECTION ASSAY - IC50) is 5.48 µM.

As to `Cc1ccc(-c2noc(CCCN3CCN(c4cnn(-c5ccccc5)c(=O)c4Cl)CC3)n2)cc1`, the IC90 was 5.31 µM. In addition, the IC50 (HEPG2TOX_HILL_SLOPE 2.5, HEPG2TOX_R_SQUARED 0.985, PBLUC_HILL_SLOPE 2.59, PBLUC_R_SQUARED 0.752, read-out: LUCIFERASE INFECTION ASSAY - IC50) worked out at 2.28 µM.

Regarding `COc1ccc(N(C)S(=O)(=O)c2cccc(C(=O)Nc3ccc(Br)c(C(F)(F)F)c3)c2)cc1`, the IC90 is above 10 µM. Also, under setting [1], the IC50 was above 10 µM.

Consider `CCc1ccc(NC(=O)C[n+]2c3n(c4c(F)c(F)ccc42)CCCCC3)cc1`, for which the IC90 stood at 9.39 µM. In addition, the 50% inhibitory concentration (IC50) (HEPG2TOX_HILL_SLOPE 3.71, HEPG2TOX_R_SQUARED 0.507, PBLUC_HILL_SLOPE 2.96, PBLUC_R_SQUARED 0.697, read-out: LUCIFERASE INFECTION ASSAY - IC50) was found to be 4.47 µM.

For the molecule `Fc1ccc(CNc2ncnc3ccsc23)cc1`, the concentration for an effect of 90% (IC90) is above 10 µM. Under “HEPG2TOX_HILL_SLOPE 12.4, 1.24, HEPG2TOX_R_SQUARED 0.688, 0.830, PBLUC_HILL_SLOPE 1.50, 7.58, PBLUC_R_SQUARED 0.332, 0.354, read-out: LUCIFERASE INFECTION ASSAY - IC50”, the IC50 was determined as 6.82 µM.

For `Cc1cccc(-c2nc(-c3cc(C)n(-c4nnc[nH]4)c3C)cs2)c1`, the IC90 was above 10 µM. In addition, the IC50 under setting [1] was determined as 9.67 µM.

For the molecule `COc1cc(Nc2nc(C(F)(F)F)nc3ccccc23)cc(OC)c1OC`, the IC90 was above 10 µM. In addition, the IC50 (HEPG2TOX_HILL_SLOPE 10.4, HEPG2TOX_R_SQUARED 0.414, PBLUC_HILL_SLOPE 1.58, PBLUC_R_SQUARED 0.452, read-out: LUCIFERASE INFECTION ASSAY - IC50) is 4.12 µM.
